Laboratory results published in the supplement of paper PMC10307832.

Assays:
Assay in all cases: relative viability (nuclei count vs DMSO), 5 days (fraction); higher = more cells survive
[1] = test system: A549
How it was run: (§1)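 Five library-drug doses in √10 steps were combined with a fixed anchor-drug dose, or a single drug was given alone, by pin tool to lung cancer cell lines in 1536-well plates the day after seeding. Nuclei were stained and counted after 5 days. Relative viability is the nuclei count in treated wells over that in vehicle wells, taken as the median of duplicate plates.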

[2] = test system: Calu-6
How it was run: as §1

[3] = test system: EBC-1
How it was run: as §1

[4] = test system: IA-LM
How it was run: as §1

[5] = test system: NCI-H1299
How it was run: as §1

[6] = test system: NCI-H1563
How it was run: as §1

[7] = test system: NCI-H1623
How it was run: as §1

[8] = test system: NCI-H1703
How it was run: as §1

[9] = test system: NCI-H2342
How it was run: as §1

[10] = test system: SW 900
How it was run: as §1

[11] = test system: NCI-H1648
How it was run: as §1

[12] = test system: NCI-H522
How it was run: as §1

## O=c1[nH]c2ccccc2n1C1CCN(CCCC(c2ccc(F)cc2)c2ccc(F)cc2)CC1 [Pimozide] + COc1cc2c(Oc3ccc(NC(=O)C4(C(=O)Nc5ccc(F)cc5)CC4)cc3F)ccnc2cc1OCCCN1CCOCC1 [Foretinib] (partner 0.25 µM)
[1]; first compound 0.08 µM
  relative viability: 0.891
[1]; first compound 0.253 µM
  relative viability: 0.988
[1]; first compound 0.8 µM
  relative viability: 1.04
[1]; first compound 2.53 µM
  relative viability: 0.949
[1]; first compound 8 µM
  relative viability: 0.728
[2]; first compound 0.08 µM
  relative viability: 0.887
[2]; first compound 0.253 µM
  relative viability: 0.925
[2]; first compound 0.8 µM
  relative viability: 0.819
[2]; first compound 2.53 µM
  relative viability: 0.914
[2]; first compound 8 µM
  relative viability: 0.822
[3]; first compound 0.08 µM
  relative viability: 0.0944
[3]; first compound 0.253 µM
  relative viability: 0.102
[3]; first compound 0.8 µM
  relative viability: 0.0973
[3]; first compound 2.53 µM
  relative viability: 0.104
[3]; first compound 8 µM
  relative viability: 0.12
[4]; first compound 0.08 µM
  relative viability: 1.16
[4]; first compound 0.253 µM
  relative viability: 1.15
[4]; first compound 0.8 µM
  relative viability: 1.16
[4]; first compound 2.53 µM
  relative viability: 1.19
[4]; first compound 8 µM
  relative viability: 1.17
[5]; first compound 0.08 µM
  relative viability: 1.11
[5]; first compound 0.253 µM
  relative viability: 1.12
[5]; first compound 0.8 µM
  relative viability: 1.07
[5]; first compound 2.53 µM
  relative viability: 1.07
[5]; first compound 8 µM
  relative viability: 1.04
[6]; first compound 0.08 µM
  relative viability: 0.969
[6]; first compound 0.253 µM
  relative viability: 0.849
[6]; first compound 0.8 µM
  relative viability: 0.832
[6]; first compound 2.53 µM
  relative viability: 0.877
[6]; first compound 8 µM
  relative viability: 0.832
[7]; first compound 0.08 µM
  relative viability: 0.505
[7]; first compound 0.253 µM
  relative viability: 0.879
[7]; first compound 0.8 µM
  relative viability: 0.81
[7]; first compound 2.53 µM
  relative viability: 0.88
[7]; first compound 8 µM
  relative viability: 0.889
[8]; first compound 0.08 µM
  relative viability: 0.394
[8]; first compound 0.253 µM
  relative viability: 0.272
[8]; first compound 0.8 µM
  relative viability: 0.375
[8]; first compound 2.53 µM
  relative viability: 0.37
[8]; first compound 8 µM
  relative viability: 0.336
[9]; first compound 0.08 µM
  relative viability: 0.92
[9]; first compound 0.253 µM
  relative viability: 0.973
[9]; first compound 0.8 µM
  relative viability: 0.931
[9]; first compound 2.53 µM
  relative viability: 0.975
[9]; first compound 8 µM
  relative viability: 1.07
[10]; first compound 0.08 µM
  relative viability: 0.877
[10]; first compound 0.253 µM
  relative viability: 0.956
[10]; first compound 0.8 µM
  relative viability: 0.668
[10]; first compound 2.53 µM
  relative viability: 0.746
[10]; first compound 8 µM
  relative viability: 1.03

## O=c1[nH]c2ccccc2n1C1CCN(CCCC(c2ccc(F)cc2)c2ccc(F)cc2)CC1 [Pimozide] + Cc1cc(Nc2cc(N3CCN(C)CC3)nc(Sc3ccc(NC(=O)C4CC4)cc3)n2)n[nH]1 [Tozasertib] (partner 0.1 µM)
[7]; first compound 0.253 µM
  relative viability: 0.439
[7]; first compound 0.8 µM
  relative viability: 0.375
[7]; first compound 2.53 µM
  relative viability: 0.456
[7]; first compound 8 µM
  relative viability: 0.39
[11]; first compound 0.08 µM
  relative viability: 0.574
[11]; first compound 0.253 µM
  relative viability: 0.398
[11]; first compound 0.8 µM
  relative viability: 0.353
[11]; first compound 8 µM
  relative viability: 0.53
[9]; first compound 0.08 µM
  relative viability: 0.51
[9]; first compound 0.253 µM
  relative viability: 0.517
[9]; first compound 0.8 µM
  relative viability: 0.505
[9]; first compound 2.53 µM
  relative viability: 0.488
[9]; first compound 8 µM
  relative viability: 0.576
[12]; first compound 0.08 µM
  relative viability: 0.509
[12]; first compound 0.253 µM
  relative viability: 0.47
[12]; first compound 0.8 µM
  relative viability: 0.573
[12]; first compound 2.53 µM
  relative viability: 0.485
[12]; first compound 8 µM
  relative viability: 0.525
[10]; first compound 0.08 µM
  relative viability: 0.633
[10]; first compound 0.253 µM
  relative viability: 0.606
[10]; first compound 0.8 µM
  relative viability: 0.54
[10]; first compound 2.53 µM
  relative viability: 0.618
[10]; first compound 8 µM
  relative viability: 0.563

## O=c1[nH]c2ccccc2n1C1CCN(CCCC(c2ccc(F)cc2)c2ccc(F)cc2)CC1 [Pimozide] + Cc1nc(Nc2ncc(C(=O)Nc3c(C)cccc3Cl)s2)cc(N2CCN(CCO)CC2)n1 [Dasatinib] (partner 0.075 µM)
[6]; first compound 0.08 µM
  relative viability: 0.474
[6]; first compound 0.253 µM
  relative viability: 0.429
[6]; first compound 0.8 µM
  relative viability: 0.484
[6]; first compound 2.53 µM
  relative viability: 0.426
[6]; first compound 8 µM
  relative viability: 0.459
[7]; first compound 0.253 µM
  relative viability: 0.597
[7]; first compound 0.8 µM
  relative viability: 0.536
[7]; first compound 2.53 µM
  relative viability: 0.52
[7]; first compound 8 µM
  relative viability: 0.56
[9]; first compound 0.08 µM
  relative viability: 0.33
[9]; first compound 0.253 µM
  relative viability: 0.337
[9]; first compound 0.8 µM
  relative viability: 0.339
[9]; first compound 2.53 µM
  relative viability: 0.299
[9]; first compound 8 µM
  relative viability: 0.323
[12]; first compound 0.08 µM
  relative viability: 0.856
[12]; first compound 0.253 µM
  relative viability: 0.883
[12]; first compound 0.8 µM
  relative viability: 0.81
[12]; first compound 2.53 µM
  relative viability: 0.924
[12]; first compound 8 µM
  relative viability: 0.86
[10]; first compound 0.08 µM
  relative viability: 0.51
[10]; first compound 0.253 µM
  relative viability: 0.816
[10]; first compound 0.8 µM
  relative viability: 0.37
[10]; first compound 2.53 µM
  relative viability: 0.551
[10]; first compound 8 µM
  relative viability: 0.567

## O=c1[nH]c2ccccc2n1C1CCN(CCCC(c2ccc(F)cc2)c2ccc(F)cc2)CC1 [Pimozide] + N=C(N)NC(=N)NCCc1ccccc1 [Phenformin] (partner 250 µM)
[1]; first compound 0.08 µM
  relative viability: 0.154
[1]; first compound 0.253 µM
  relative viability: 0.171
[1]; first compound 0.8 µM
  relative viability: 0.152
[1]; first compound 2.53 µM
  relative viability: 0.156
[1]; first compound 8 µM
  relative viability: 0.173
[6]; first compound 0.08 µM
  relative viability: 0.721
[6]; first compound 0.253 µM
  relative viability: 0.771
[6]; first compound 0.8 µM
  relative viability: 0.668
[6]; first compound 2.53 µM
  relative viability: 0.663
[6]; first compound 8 µM
  relative viability: 0.64
[7]; first compound 0.253 µM
  relative viability: 0.575
[7]; first compound 0.8 µM
  relative viability: 0.57
[7]; first compound 2.53 µM
  relative viability: 0.617
[7]; first compound 8 µM
  relative viability: 0.629
[9]; first compound 0.08 µM
  relative viability: 0.655
[9]; first compound 0.253 µM
  relative viability: 0.543
[9]; first compound 0.8 µM
  relative viability: 0.555
[9]; first compound 2.53 µM
  relative viability: 0.536
[9]; first compound 8 µM
  relative viability: 0.639
[12]; first compound 0.08 µM
  relative viability: 0.569
[12]; first compound 0.253 µM
  relative viability: 0.655
[12]; first compound 0.8 µM
  relative viability: 0.628
[12]; first compound 2.53 µM
  relative viability: 0.804
[12]; first compound 8 µM
  relative viability: 0.671
[10]; first compound 0.08 µM
  relative viability: 0.574
[10]; first compound 0.253 µM
  relative viability: 0.685
[10]; first compound 0.8 µM
  relative viability: 0.375
[10]; first compound 2.53 µM
  relative viability: 0.552
[10]; first compound 8 µM
  relative viability: 0.516
